The assay addresses T1, hCaSR (Calcium sensing receptor) in stably transfected HEK293 cells (Homo sapiens, UniProt P41180).
T1 construct: expressed in transfected cells; host or cells: HEK293 (stably transfected)
T1 sequence (P41180 20-1078): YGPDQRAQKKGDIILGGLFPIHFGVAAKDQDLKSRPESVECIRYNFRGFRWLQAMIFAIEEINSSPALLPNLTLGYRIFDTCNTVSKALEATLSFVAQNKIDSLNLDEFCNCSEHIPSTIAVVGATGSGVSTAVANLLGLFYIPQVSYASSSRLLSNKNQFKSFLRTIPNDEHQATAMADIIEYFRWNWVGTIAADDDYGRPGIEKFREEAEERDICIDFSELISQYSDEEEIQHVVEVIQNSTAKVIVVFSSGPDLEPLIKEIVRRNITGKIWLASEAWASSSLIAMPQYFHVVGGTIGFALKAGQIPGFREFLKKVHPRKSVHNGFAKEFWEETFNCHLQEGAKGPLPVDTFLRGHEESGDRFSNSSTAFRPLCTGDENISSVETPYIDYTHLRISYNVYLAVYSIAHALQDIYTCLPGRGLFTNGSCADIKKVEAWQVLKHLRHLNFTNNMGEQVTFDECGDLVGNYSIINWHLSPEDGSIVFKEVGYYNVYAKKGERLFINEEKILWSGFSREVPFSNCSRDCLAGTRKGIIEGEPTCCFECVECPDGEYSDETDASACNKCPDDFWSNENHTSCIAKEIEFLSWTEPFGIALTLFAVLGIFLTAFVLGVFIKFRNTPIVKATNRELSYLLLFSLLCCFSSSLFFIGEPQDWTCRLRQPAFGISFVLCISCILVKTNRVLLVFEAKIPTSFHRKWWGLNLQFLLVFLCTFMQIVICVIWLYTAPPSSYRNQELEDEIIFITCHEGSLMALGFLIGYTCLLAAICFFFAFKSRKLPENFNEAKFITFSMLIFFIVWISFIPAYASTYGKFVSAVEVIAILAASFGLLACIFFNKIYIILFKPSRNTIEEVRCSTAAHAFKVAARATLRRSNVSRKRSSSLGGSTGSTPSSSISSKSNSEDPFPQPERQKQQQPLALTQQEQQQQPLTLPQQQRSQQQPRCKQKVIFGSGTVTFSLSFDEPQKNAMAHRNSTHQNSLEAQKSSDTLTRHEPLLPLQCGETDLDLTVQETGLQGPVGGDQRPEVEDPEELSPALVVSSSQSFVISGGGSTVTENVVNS
As to the kind of experiment: In-vitro assay of calcimimetics through modulation of calcium sensing receptor (CaSR): increase in intracellular calcium, FLIPR. Format: cell-based. To be noted: HEK293 cells expressing hCaSR; intracellular calcium (Fluo4NW, FLIPR); 0.3 mM CaCl2; 8-point assay; read-out: EC50 in range. The procedure:
In-Vitro Assay Method of Calcimemtics Through Modulation of Calcium Sensing Receptor (CaSR):
The ability of the compounds to modulate Calcium sensing receptor is determined by measuring an increase in intracellular calcium [Ca^2+i]. Stably transfected HEK293 cells expressing hCaSR_pTriEx-3 hygro vector are developed. Cells are grown overnight on a 96-well plate to 80% confluency in Ham's F12 containing 20% FBS at 37° C., 5% CO2 Subsequently, cells are washed extensively with 20 mM HEPES buffer containing 126 mM NaCl2, 1 mM MgCl2 and 4 mM KCl2 to remove serum components that might interfere with the assay. Cells are loaded with calcium sensing Fluo4NW dye in HEPES base buffer containing 0.1% BSA and 1 mg/ml glucose for 30 minutes to measure changes in intracellular calcium. The activities of the compounds are measured in FLIPR using 0.3 mM CaCl2 in 20 mM HEPES base buffer. The effectiveness of the compound to modulate receptor activity is determined by calculating the EC50 responses for that compound in an 8-point assay and plotted using GraphPad Prism 5.
The compounds prepared were tested using the above assay procedure and the results obtained are given below.
A general note: A change in cytosolic calcium serves as a functional read-out for many receptors and channels.

Structures are written as SMILES. Counter-ions that a name gives are not always drawn. Bounds are passed on as bounds.

As usually defined, the EC50 is the concentration giving half of the maximal effect.

`Cc1ccc(N2CCOC(CCN[C@H](C)c3cccc4ccccc34)C2)cc1CCC(=O)O` (single isomer, unassigned) [Example 108a, hydrochloride]: the EC50 lay within 20 to 50 nM.
As for `C[C@@H](NCCC1CN(c2ccc(C(F)(F)F)c(C(=O)O)c2)CCO1)c1cccc2ccccc12` (single isomer, unassigned) [Example 110a, hydrochloride], the EC50 is 50 to 200 nM.
Next, `C[C@@H](NCCC1CN(c2ccc(C(=O)O)cc2)CCO1)c1cccc2ccccc12` (single isomer, unassigned) [Example 112a, hydrochloride]: 50 to 200 nM; `C[C@@H](NCCC1CN(c2cccc(OCC(=O)O)c2)CCO1)c1cccc2ccccc12` (single isomer, unassigned) [Example 113a, hydrochloride]: 50 to 200 nM; `Cc1cc(N2CCOC(CN[C@H](C)c3cccc4ccccc34)C2)ccc1C(=O)O` (single isomer, unassigned) [Example 136b, hydrochloride]: 50 to 200 nM.
In the case of `C[C@@H](NCC1CN(c2cc(C(=O)O)cc(C(F)(F)F)c2)CCO1)c1cccc2ccccc12` (single isomer, unassigned) [Example 150a, hydrochloride], the EC50 is < 20 nM.
Next, `COc1cc([C@@H](C)NCC2CN(c3ccc(F)c(F)c3)C(=O)CO2)ccc1F` (single isomer, unassigned) [Example 152b, hydrochloride]: 50 to 200 nM.
Next, `COc1cc([C@@H](C)NCC2CN(Cc3cc(F)ccc3F)C(=O)CO2)ccc1F` (single isomer, unassigned) [Example 160a, hydrochloride]: 20 to 50 nM.
Next, `C[C@@H](NCC1COCCN1c1ccccc1)c1cccc2ccccc12` (single isomer, unassigned) [Example-1a, hydrochloride]: < 20 nM; `C[C@@H](NCC1COCCN1c1cccc(C(F)(F)F)c1)c1cccc2ccccc12` (single isomer, unassigned) [Example-2a]: < 20 nM.
Turning to `C[C@@H](NCC1COCCN1Cc1cccc(C(F)(F)F)c1)c1cccc2ccccc12` (single isomer, unassigned) [Example-35b], the EC50 fell in the range of 20 to 50 nM.
`C[C@@H](NCC1COCCN1Cc1ccccc1)c1cccc2ccccc12` (single isomer, unassigned) [Example-36a]: the EC50 is 50 to 200 nM.
For the molecule `COc1cccc([C@@H](C)NCC2COCCN2Cc2ccccc2)c1` (single isomer, unassigned) [Example-37b], the EC50 was in the range of 50 to 200 nM.
The value for `C[C@@H](NCC1CN(CC2CCCC2)C(=O)CO1)c1cccc2ccccc12` (single isomer, unassigned) [Example-69a] was 50 to 200 nM; that for `C[C@@H](NCC1CN(C2CCCC2)C(=O)CO1)c1cccc2ccccc12` (stereo partly drawn) [Example 76, 4-Cyclopentyl-6-((((R)-1-(naphthalen-1-yl)ethyl)amino)methyl)morpholin-3-one hydrochloride] was < 20 nM; that for `C[C@@H](NCC1CN(Cc2cccc(F)c2F)C(=O)CO1)c1cccc2ccccc12` (stereo partly drawn) [Example 81, 4-(2,3-Difluorobenzyl)-6-((((R)-1-(naphthalen-1-yl)ethyl)amino)methyl)morpholin-3-one hydrochloride] was < 20 nM.
The value for `C[C@@H](NCC1CN(Cc2ccc(F)cc2C(F)(F)F)C(=O)CO1)c1cccc2ccccc12` (stereo partly drawn) [Example 82, 4-(4-Fluoro-2-(trifluoromethyl)benzyl)-6-((((R)-1-(naphthalen-1-yl)ethyl)amino)methyl)morpholin-3-one hydrochloride] was < 20 nM; that for `COc1cc([C@@H](C)NCC2CN(C3CCCC3)C(=O)CO2)ccc1F` (stereo partly drawn) [Example 96, 4-Cyclopentyl-6-((((R)-1-(4-fluoro-3-methoxyphenyl)ethyl)amino)methyl)morpholin-3-one hydrochloride] was 50 to 200 nM; that for `C[C@@H](NCCC1CN(c2ccc(C(F)(F)F)cc2)CCO1)c1cccc2ccccc12` (stereo partly drawn) [Example 105, (1R)-1-(Naphthalen-1-yl)-N-(2-(4-(4-(trifluoromethyl)phenyl)morpholin-2-yl)ethyl)ethanamine] was 20 to 50 nM.
Regarding `Cc1cccc(N2CCOCC2CN[C@H](C)c2cccc3ccccc23)c1` (stereo partly drawn) [Example 120, (1R)-1-(Naphthalen-1-yl)-N-((4-(m-tolyl)morpholin-3-yl)methyl)ethanamine hydrochloride], the EC50 is < 20 nM.
Next, `COc1cccc([C@@H](C)NCC2CN(c3cccc(C)c3)CCO2)c1` (stereo partly drawn) [Example 134, (1R)-1-(3-Methoxyphenyl)-N-((4-(m-tolyl)morpholin-2-yl)methyl)ethanamine hydrochloride]: < 20 nM; `COc1cccc([C@@H](C)NCC2CN(c3ccc(F)c(F)c3)CCO2)c1` (stereo partly drawn) [Example 135, (1R)-N-((4-(3,4-Difluorophenyl)morpholin-2-yl)methyl)-1-(3-methoxyphenyl)ethanamine hydrochloride]: < 20 nM.
For the molecule `C[C@@H](NCC1CN(c2ccc(C(=O)O)cc2)CCO1)c1cccc2ccccc12` (stereo partly drawn) [Example 147, 4-(2-((((R)-1-(Naphthalen-1-yl)ethyl)amino)methyl)morpholino)benzoic acid hydrochloride], the EC50 lay in the range of 50 to 200 nM.
Turning to `C[C@@H](NCC1CN(c2cccc(F)c2)CCO1)c1cccc2ccccc12` (stereo partly drawn) [Example-3, (1R)-N-((4-(3-Fluorophenyl)morpholin-2-yl)methyl)-1-(naphthalen-1-yl)ethanamine hydrochloride], the EC50 lay in the range of 20 to 50 nM.
For `C[C@@H](NCC1COCCN1c1cccc(F)c1)c1cccc2ccccc12` (stereo partly drawn) [Example-9], the EC50 is < 20 nM.
Consider `COc1cccc([C@@H](C)NCC2CN(c3ccc(OC)c(F)c3)C(=O)CO2)c1` (stereo partly drawn) [Example-50, 4-(3-Fluoro-4-methoxyphenyl)-6-((((R)-1-(3-methoxyphenyl)ethyl)amino)methyl)morpholin-3-one], for which the EC50 fell in the range of 20 to 50 nM.
The value for `COc1cccc([C@@H](C)NCC2COCCN2c2ccc(C)cc2)c1` (stereo partly drawn) [compound 8] was 50 to 200 nM; that for `COc1cccc([C@@H](C)NCC2COCCN2c2ccc(F)c(F)c2)c1` (stereo partly drawn) [compound 12] was 50 to 200 nM; that for `COc1cccc([C@@H](C)NCC2COCCN2c2cccc(F)c2)c1` (stereo partly drawn) [compound 15] was 20 to 50 nM.
For the molecule `C[C@@H](NCC1COCCN1c1ccc(F)cc1)c1cccc2ccccc12` (stereo partly drawn) [compound 17], the EC50 was 20 to 50 nM.
The value for `C[C@@H](NCC1CN(c2cccc(C(F)(F)F)c2)CCO1)c1cccc2ccccc12` (stereo partly drawn) [compound 22] was 20 to 50 nM; that for `C[C@@H](NCC1CN(c2ccc(F)cc2)CCO1)c1cccc2ccccc12` (stereo partly drawn) [compound 28] was < 20 nM.
Regarding `COc1cccc([C@@H](C)NCC2CN(c3ccccc3)CCO2)c1` (stereo partly drawn) [compound 32], the EC50 fell in the range of 50 to 200 nM.
Next, `C[C@@H](NCC1CN(c2cccc(F)c2F)C(=O)CO1)c1cccc2ccccc12` (stereo partly drawn) [compound 54, 4-(2,3-Difluorophenyl)-6-((((R)-1-(naphthalen-1-yl)ethyl)amino)methyl)morpholin-3-one hydrochloride]: < 20 nM.
Next, `C[C@@H](NCC1CN(c2ccc3c(c2)OC(F)(F)O3)C(=O)CO1)c1cccc2ccccc12` (stereo partly drawn) [compound 59, 4-(2,2-Difluorobenzo[d][1,3]dioxol-5-yl)-6-((((R)-1-(naphthalen-1-yl)ethyl)amino)methyl)morpholin-3-one hydrochloride]: 20 to 50 nM; `C[C@@H](NCC1CN(c2ccc(CC(=O)O)cc2)C(=O)CO1)c1cccc2ccccc12` (stereo partly drawn) [compound 60, 2-(4-(2-((((R)-1-(Naphthalen-1-yl)ethyl)amino)methyl)-5-oxomorpholino)phenyl)acetic acid hydrochloride]: 50 to 200 nM.

The record behind these values is US9382216B2, “Substituted morpholines as modulators for the calcium sensing receptor” (LUPIN LIMITED, priority 2011, dated 2016).
